# Test results: patent publication US20080076824A1, “Compounds That Inhibit Replication Of Human Immunodeficiency Virus” (priority 2004, published 2008)
# “And” between values parts separate entries of the source, which are not always exact repeats. Equal entries are not always repeated. “Also recorded” adds a separate entry of the source. Structures can show the parent of a compound that is named as a salt. Where two headings read alike, the source gives them in different places. Residues, ends and D or L forms follow the SMILES beside them.
# Tests used:
# HIV-2 (ROD) = assay: microbe, parasite or virus in culture; format: cell-based
# In short: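 CEM, C8166 or MT-4 cells (4 to 5×10^5 cells/ml) infected with HIV-2 ROD at ~100 CCID50/ml, then incubated with 5-fold compound dilutions at 37 °C for 4–5 days. Giant cell formation scored microscopically in CEM and C8166 cultures; MT-4 viability counted by trypan blue exclusion.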
# HIV-1 (IIIB) = assay: microbe, parasite or virus in culture
# Description: (§1) MT-4, C8166 or CEM cells (4 to 5×10^5 cells per ml) were suspended in fresh culture medium (RPMI-1640 medium supplemented with 10% fetal bovine serum (FBS) (BioWittaker Europe, Verviers, Belgium), 2 mM L-glutamine and […] NaHCO3). Subsequently, the cells were infected with HIV-1 (IIIB) or HIV-2(ROD) at ˜100 CCID50 (1 CCID50 being the dose infective for 50% of the cell cultures) per ml of cell suspension. Then, 100 μl of the infected cell suspension were transferred to 96-well microplate wells, mixed with 100 μl of the appropriate (5-fold) dilutions of the test compounds and further incubated at 37° C. After 4 to 5 days, giant cell formation was recorded microscopically in the CEM and C8166 cell cultures. The MT-4 cell cultures were treated with trypan blue and the number of viable cells was determined.
# HIV-2(ROD) = assay: microbe, parasite or virus in culture
# Description: as §1
# HIV (SF2 virus) [1] = assay: HIV infectivity assay, SF2-infected H9 cells, p24 quantification; format: cell-based
# Description: The remaining wells were filled with sterile distilled water. The cell culture plates were incubated at 37° C. and 5% CO2. After four days the medium was changed, after eight days the medium was changed and the cells were collected. After 11 days, the infection was stopped, the cells were viewed in a 10× magnification microscope and 650 μl of each cell supernatant was collected and frozen at −80° C. for further analysis. After five more days, the supernatants were thawed and used in a conventional reverse transcriptase (RT) activity assay (e.g., Roche AMPLICOR MONITOR™) or a p24 quantification assay (e.g., Abbott Laboratories, Chicago). (See U.S. Pat. No. 6,258,932 and U.S. patent application Ser. No. 10/235,158, both of which are hereby expressly incorporated by reference in its entireties).
# […] The cells in the samples were counted and then centrifuged. The cells were then resuspended in 10 ml of RPMI 1640 (containing fetal calf serum) and either […] Metabolite X or 100 μM GPG-NH2. Uninfected control and untreated control samples were also included in the experiment. The samples were then incubated overnight at 37° C. at 5% CO2.
# Then, the amount of p24 in the samples was analysed using a conventional p24 detection assay (see U.S. Pat. No. 6,258,932).
# Three replicate samples (“replicates”) of uninfected samples and untreated samples were also included in the experiment as controls. The inhibition of HIV replication was monitored by quantifying the levels of p24 using a conventional detection kit.
# Three replicates of unninfected samples and untreated samples were also included in the experiment as controls.
# HIV (SF2 virus) [2] = assay: HIV infectivity assay, SF2-infected H9 cells, reverse transcriptase (RT) quantification in supernatant; format: cell-based; conditions: for RT mean: mean of replicates; for RT: single replicate; for RT / OD405-620 / OD405-620 - Blank: listed as αHGA, hydrochloride
# HIV-2 (EHO) = conditions: read-out: EC50 HIV-2 EHO; CEM cell cultures, syncytia formation
# Description: (§2) Human T-lymphocytic CEM cells (4.5×10^5 cells per ml) were suspended in fresh cell culture medium and infected with HIV-1 (IIIB and NL4.3) or HIV-2 (ROD or EHO) at 100 CCID50 (1 CCID50 being the virus dose infective for 50% of the cell cultures) per ml of cell suspension. Then, 100 μl of the infected cell suspension were transferred to microplate wells, mixed with 100 μl of appropriate (freshly prepared) dilutions of the test compounds (i.e., at final concentrations of […]), and were further incubated at 37° C. After 4 to 5 days, giant cell formation was recorded microscopically in the CEM cell cultures.
# HIV-1 (NL4.3) = conditions: read-out: EC50 HIV-1 NL3.4; CEM cell cultures, syncytia formation
# Description: as §2
# Parainfluenza-3 virus = conditions: read-out: Minimum inhibitory concentration Parainfluenza-3 virus; Vero; reduces virus-induced cytopathogenicity by 50%
# Reovirus-1 = conditions: read-out: Minimum inhibitory concentration Reovirus-1; Vero; reduces virus-induced cytopathogenicity by 50%
# [3] = system: Vesicular stomatitis virus; conditions: read-out: Minimum inhibitory concentration Vesicular stomatitis virus; HEL; reduces virus-induced cytopathogenicity by 50%
# [4] = system: Vesicular stomatitis virus; conditions: read-out: Minimum inhibitory concentration Vesicular stomatitis virus; HeLa; reduces virus-induced cytopathogenicity by 50%
# [5] = 50 μM, fetal calf serum, hydrochloride
smiles,measurement,setting,value
"NC(=O)C(N)O (stereo not drawn) [AlphaHGA, α-Hydroxy-glycinamide hydrochloride]",EC50,"HIV-2 (ROD); Human immunodeficiency virus 2, CCRF-CEM, read-out: EC50 (CEM) HIV-2 (ROD)",52 ± 23 µM
same,EC50,"HIV-1 (IIIB); Human immunodeficiency virus 1, IIIB, C8166, read-out: EC50 (C8166) HIV-1 (IIIB)",200 µM
same,EC50,"HIV-1 (IIIB); Human immunodeficiency virus 1, IIIB, MT4, read-out: EC50 (MT-4) HIV-1 (IIIB)",≥ 500 µM
same,EC50,"HIV-1 (IIIB); Human immunodeficiency virus 1, IIIB, MT4, read-out: EC50 (MT-4) HIV-1(IIIB)",≥ 500 µM
same,EC50,"HIV-2(ROD); Human immunodeficiency virus 2, C8166, read-out: EC50 (C8166) HIV-2 (ROD)",125 µM
same,EC50,"HIV-2(ROD); Human immunodeficiency virus 2, MT4, read-out: EC50 (MT-4) HIV-2 (ROD)",≥ 500 µM
same,EC50,"HIV-2(ROD); read-out: EC50 (MT-4) HIV-2 (ROD), Table 20",≥ 500 µM
same,OD1,"HIV (SF2 virus) [1]; 50 μM, fetal calf serum, replicates (1)-(3), hydrochloride",0.183 and 0.232 and 0.147
same,OD2,HIV (SF2 virus) [1]; [5],0.185 and 0.216 and 0.139
same,conc p24,HIV (SF2 virus) [1]; [5],0.26 ng/mL and 0.33 ng/mL and 0.20 ng/mL
same,mean OD,HIV (SF2 virus) [1]; [5],0.184 and 0.224 and 0.143
same,mean OD - blank,HIV (SF2 virus) [1]; [5],0.142 and 0.182 and 0.101
same,"inhibition of HIV, accumulation of p24, compared with reference","HIV (SF2 virus) [1]; fetal calf serum, hydrochloride",as effectively as GPG-NH2; also recorded: as effectively as G-NH2
same,"inhibition of HIV replication, accumulation of p24","HIV (SF2 virus) [1]; human serum, hydrochloride",effective inhibitors of HIV replication in human serum; also recorded: inhibited HIV replication in human serum
same,RT mean,"HIV (SF2 virus) [2]; 0.5 μM, fetal calf serum",7539 pg/mL
same,RT,"HIV (SF2 virus) [2]; 0.5 μM, fetal calf serum",6982 pg/mL and 9916 pg/mL and 5721 pg/mL
same,OD405-620,"HIV (SF2 virus) [2]; 0.5 μM, fetal calf serum",0.692 and 0.962 and 0.576
same,OD405-620 - Blank,"HIV (SF2 virus) [2]; 0.5 μM, fetal calf serum",0.666 and 0.936 and 0.55
same,RT mean,"HIV (SF2 virus) [2]; 1 μM, fetal calf serum",4594 pg/mL
same,RT,"HIV (SF2 virus) [2]; 1 μM, fetal calf serum",5590 pg/mL and 4482 pg/mL and 3710 pg/mL
same,OD405-620,"HIV (SF2 virus) [2]; 1 μM, fetal calf serum",0.564 and 0.462 and 0.391
same,OD405-620 - Blank,"HIV (SF2 virus) [2]; 1 μM, fetal calf serum",0.538 and 0.436 and 0.365
same,RT mean,"HIV (SF2 virus) [2]; 2 μM, fetal calf serum",5934 pg/mL
same,RT,"HIV (SF2 virus) [2]; 2 μM, fetal calf serum",8003 pg/mL and 6492 pg/mL and 3308 pg/mL
same,RT mean,"HIV (SF2 virus) [2]; 4 μM, fetal calf serum",5315 pg/mL
same,RT,"HIV (SF2 virus) [2]; 4 μM, fetal calf serum",5340 pg/mL and 4688 pg/mL and 5916 pg/mL
same,OD405-620,"HIV (SF2 virus) [2]; 4 μM, fetal calf serum",0.541 and 0.481 and 0.594
same,OD405-620 - Blank,"HIV (SF2 virus) [2]; 4 μM, fetal calf serum",0.515 and 0.455 and 0.568
same,RT mean,"HIV (SF2 virus) [2]; 8 μM, fetal calf serum",5300 pg/mL
same,RT,"HIV (SF2 virus) [2]; 8 μM, fetal calf serum",6688 pg/mL and 4971 pg/mL and 4242 pg/mL
same,OD405-620,"HIV (SF2 virus) [2]; 8 μM, fetal calf serum",0.665 and 0.507 and 0.44
same,OD405-620 - Blank,"HIV (SF2 virus) [2]; 8 μM, fetal calf serum",0.639 and 0.481 and 0.414
same,RT mean,"HIV (SF2 virus) [2]; 16 μM, fetal calf serum",1134 pg/mL
same,RT,"HIV (SF2 virus) [2]; 16 μM, fetal calf serum",1514 pg/mL and 666 pg/mL and 1221 pg/mL
same,OD405-620,"HIV (SF2 virus) [2]; 16 μM, fetal calf serum",0.189 and 0.111 and 0.162
same,OD405-620 - Blank,"HIV (SF2 virus) [2]; 16 μM, fetal calf serum",0.163 and 0.085 and 0.136
same,HIV replication at 25 μM,HIV (SF2 virus) [2]; 25 μM,neglible levels
same,RT mean,"HIV (SF2 virus) [2]; 32 μM, fetal calf serum",72 pg/mL
same,RT,"HIV (SF2 virus) [2]; 32 μM, fetal calf serum",48 pg/mL and 70 pg/mL and 97 pg/mL
same,OD405-620,"HIV (SF2 virus) [2]; 32 μM, fetal calf serum",0.269 and 0.373 and 0.497
same,OD405-620 - Blank,"HIV (SF2 virus) [2]; 32 μM, fetal calf serum",0.243 and 0.347 and 0.471
same,IC50,"HIV (SF2 virus) [2]; Human immunodeficiency virus 1, H9, 264 h",6 to 9 µM
same,stability to incubation at 37° C.,"HIV (SF2 virus) [2]; diluted sample, antiretroviral activity compared with freshly diluted compound",stable to incubation at 37 °C for at least three days
same,concentration for appreciable inhibition of HIV replication,HIV (SF2 virus) [2]; whether heat-treated or not,above 8 μM
same,concentration for better antiretroviral activity,HIV (SF2 virus) [2]; whether heat-treated or not,above 16 μM
same,concentration for very efficient inhibition of HIV replication,HIV (SF2 virus) [2]; whether heat-treated or not,above 30 μM
"NCC(=O)N1CCC[C@H]1C(=O)NCC(N)=O [GPG-NH2, glycylprolylglycinamide] (H-Gly-Pro-Gly-NH2)",EC50,"HIV-2 (ROD); CEM cell cultures, syncytia formation, Table 1, read-out: EC50 HIV-2 ROD",30 ± 10 µM
same,EC50,"HIV-1 (IIIB); read-out: EC50 (C8166) HIV-1 (IIIB), Table 19",150 µM
same,EC50,"HIV-1 (IIIB); read-out: EC50 (MT-4) HIV-1 (IIIB), Table 19",> 500 µM
same,EC50,"HIV-2(ROD); read-out: EC50 (C8166) HIV-2 (ROD), Table 19",150 µM
same,EC50,"HIV-2(ROD); read-out: EC50 (MT-4) HIV-2 (ROD), Table 19",> 500 µM
same,EC50,HIV-2 (EHO),42 ± 14 µM
same,EC50,HIV-1 (NL4.3),50 µM
same,EC50,Parainfluenza-3 virus,> 400 µM
same,EC50,Reovirus-1,> 400 µM
same,"inhibition of HIV replication, p24","HIV (SF2 virus) [1]; 100 μM, presence of fetal calf serum",effectively inhibited HIV replication
same,EC50,[3],> 400 µM
same,EC50,[4],> 400 µM
same,reverse transcriptase activity in treated samples,"HIV (SF2 virus) [2]; 100 μM, fetal calf serum",no reverse transcriptase activity
